Measured values reported in patent US20050239656A1, “Pyridine compounds or salts thereof and herbicides containing the same” (priority 2002, published 2005).

How the values were obtained:
soybean = assay: Test Example 2: soil surface treatment, upland pot test; type: in vivo, Glycine max Merr.; settings: active ingredient 500 g/ha
Method in brief: (§1)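 Visual growth-control ratings, from 0 (like the non-treated plot) to 100 (total kill), were made between days 20 and 28 after a soil-surface spray. The compound, formulated as wettable powder or emulsifiable concentrate and diluted at 1,500 L/ha, went on one day post-sowing in upland-soil pots of 1/170,000 ha.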

japanese bulrush = assay: Test Example 3: paddy pot test, application under submerged conditions; type: in vivo, Scirpus juncoides; settings: submerged application at 0.5 leaf stage, visually observed 14 days after application, 0 = non-treated, 100 = complete kill
Method in brief: (§2)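 Visual rating of growth control (0% equals untreated, 100% complete kill) made 14 days after treatment. Compound, formulated as wettable powder or emulsifiable concentrate and diluted in water, was pipetted under submerged conditions at predetermined active-ingredient doses once weeds reached 0.5-leaf (barnyardgrass, bulrush) or primary-leaf (wapato, from tubers) stage. Pots of greenhouse paddy soil held 3–4 cm flooding.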

crabgrass = assay: Test Example 2: soil surface treatment, upland pot test; type: in vivo, Digitaria sanguinalis L.; settings: active ingredient 500 g/ha
Method in brief: as §1

japanese ribbon wapato = assay: Test Example 3: paddy pot test, application under submerged conditions; type: in vivo, Sagittaria pygniaea; settings: submerged application at primary leaf stage, visually observed 14 days after application, 0 = non-treated, 100 = complete kill
Method in brief: as §2

redroot pigweed = assay: Test Example 2: soil surface treatment, upland pot test; type: in vivo, Amaranthus retroflexus L.; settings: active ingredient 500 g/ha
Method in brief: as §1

corn = assay: as above; type: in vivo, Zea mays L.; settings: active ingredient 500 g/ha
Method in brief: as §1

barnyardgrass [1] = assay: Test Example 3: paddy pot test, application under submerged conditions; type: in vivo, Echinochloa crus-galli L.; settings: submerged application at 0.5 leaf stage, visually observed 14 days after application, 0 = non-treated, 100 = complete kill
Method in brief: as §2

velvetleaf = assay: Test Example 2: soil surface treatment, upland pot test; type: in vivo, Abutilon theophrasti MEDIC.; settings: active ingredient 500 g/ha
Method in brief: as §1

green foxtail = assay: as above; type: in vivo, Setaria viridis L.; settings: active ingredient 500 g/ha
Method in brief: as §1

rice (var. Nihonbare) = assay: Test Example 3: paddy pot test, transplanted rice; type: in vivo, Oryza sativa L.; settings: applied 4th day after transplantation, visually observed 21st day after application, 0 = non-treated, 100 = complete kill
Method in brief: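 Visual crop-injury rating (0 = as untreated, 100 = complete kill, %) taken 21 days post-application. Treatment: formulated compound, water-diluted, pipetted into 3–4 cm flood water at a preset active-ingredient dose, 4 days after transplanting 2-leaf Nihonbare rice 3 cm deep in puddled paddy soil.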

prickly sida = assay: Test Example 2: soil surface treatment, upland pot test; type: in vivo, Sida spinosa L.; settings: active ingredient 500 g/ha
Method in brief: as §1

barnyardgrass [2] = assay: as above; type: in vivo, Echinochloa crus-galli L.; settings: active ingredient 500 g/ha
Method in brief: as §1

rice = assay: as above; type: in vivo, Oryza sativa L.; settings: active ingredient 500 g/ha
Method in brief: as §1

[3] = observed day 21, 0 = non-treated, 100 = complete kill

Row | Structure (SMILES) | Growth controlling degree (%) Soyabean (soybean; observed 20th to 28th day) [%] | Growth controlling degree (%) Crabgrass (crabgrass; observed 20th to 28th day) [%] | Growth controlling degree (%) Redroot pigweed (redroot pigweed; observed 20th to 28th day) [%] | Growth controlling degree (%) Corn (corn; observed 20th to 28th day) [%] | Growth controlling degree (%) Velvetleaf (velvetleaf; observed 20th to 28th day) [%] | Growth controlling degree (%) Green foxtail (green foxtail; observed 20th to 28th day) [%] | Growth controlling degree (%) Prickly sida (prickly sida; observed 20th to 28th day) [%] | Growth controlling degree (%) Barnyardgrass (barnyardgrass [2]; observed 20th to 28th day) [%] | Growth controlling degree (%) Rice (rice; observed 20th to 28th day) [%] | Growth controlling degree (%) Japanese bulrush (japanese bulrush; active ingredient 250 g/ha) [%] | Growth controlling degree (%) Japanese ribbon wapato (japanese ribbon wapato; active ingredient 250 g/ha) [%] | Growth controlling degree (%) Barnyardgrass (barnyardgrass [1]; active ingredient 250 g/ha) [%] | Growth controlling degree (%) Rice (rice (var. Nihonbare); active ingredient 250 g/ha) [%] | Growth controlling degree (%) Soyabean (soybean; [3]) [%] | Growth controlling degree (%) Crabgrass (crabgrass; [3]) [%] | Growth controlling degree (%) Redroot pigweed (redroot pigweed; [3]) [%] | Growth controlling degree (%) Corn (corn; [3]) [%] | Growth controlling degree (%) Velvetleaf (velvetleaf; [3]) [%] | Growth controlling degree (%) Green foxtail (green foxtail; [3]) [%] | Growth controlling degree (%) Prickly sida (prickly sida; [3]) [%] | also measured
1 | CC(C)C(c1cnccc1C(F)(F)F)N(C)C(=O)CC1C=CCC1 (centres unmarked) [I-183] | 10 | 100 | 95 | 10 | 50 | 100 | 30 | 100 | 60 | – | – | – | – | – | – | – | – | – | – | – | Growth controlling degree (%) Japanese bulrush (japanese bulrush; active ingredient 500 g/ha): 100%; Growth controlling degree (%) Japanese ribbon wapato (japanese ribbon wapato; active ingredient 500 g/ha): 70%; Growth controlling degree (%) Barnyardgrass (barnyardgrass [1]; active ingredient 500 g/ha): 100%; Growth controlling degree (%) Rice (rice (var. Nihonbare); active ingredient 500 g/ha): 10%
2 | CC(C)C(c1cnccc1C(F)(F)F)N(C)C(=O)N(C)c1ccccc1 (centres unmarked) [I-232] | 0 | 100 | 80 | 30 | 70 | 100 | 95 | 100 | 30 | – | – | – | – | – | – | – | – | – | – | – | Growth controlling degree (%) Japanese bulrush (japanese bulrush; active ingredient 500 g/ha): 90%; Growth controlling degree (%) Japanese ribbon wapato (japanese ribbon wapato; active ingredient 500 g/ha): 70%; Growth controlling degree (%) Barnyardgrass (barnyardgrass [1]; active ingredient 500 g/ha): 100%; Growth controlling degree (%) Rice (rice (var. Nihonbare); active ingredient 500 g/ha): 60%
3 | Cc1cc(Cl)ccc1OCC(=O)N(C)C(c1cnccc1C(F)(F)F)C(C)C (centres unmarked) [I-234] | 0 | 98 | 70 | 0 | 30 | 70 | 50 | 95 | 10 | 90 | 40 | 100 | 0 | – | – | – | – | – | – | – | –
4 | COc1ccc(OCC(=O)N(C)C(c2cnccc2C(F)(F)F)C(C)C)cc1 (centres unmarked) [I-244] | 0 | 80 | 60 | 30 | 0 | 80 | 60 | 50 | 20 | 95 | 50 | 100 | 0 | – | – | – | – | – | – | – | –
5 | CCc1ccc(OCC(=O)N(C)C(c2cnccc2C(F)(F)F)C(C)C)cc1 (centres unmarked) [I-249] | – | – | – | – | – | – | – | – | – | 98 | 0 | 98 | 0 | 20 | 98 | 60 | 20 | 50 | 98 | 80 | Growth controlling degree (%) Barnyardgrass (barnyardgrass [2]; [3]): 95%; Growth controlling degree (%) Rice (rice; [3]): 20%
6 | CC(C)C(c1cnccc1C(F)(F)F)N(C)C(=O)COc1ccc(Br)cc1 (centres unmarked) [I-255] | – | – | – | – | – | – | – | – | – | 95 | 20 | 100 | 0 | 10 | 98 | 70 | 30 | 70 | 98 | 98 | Growth controlling degree (%) Barnyardgrass (barnyardgrass [2]; [3]): 95%; Growth controlling degree (%) Rice (rice; [3]): 20%
7 | CC(C)C(c1cnccc1C(F)(F)F)N(C)C(=O)CSc1ccccc1 (centres unmarked) [I-256] | – | – | – | – | – | – | – | – | – | 90 | 20 | 100 | 0 | 0 | 98 | 80 | 10 | 0 | 100 | 10 | Growth controlling degree (%) Barnyardgrass (barnyardgrass [2]; [3]): 70%; Growth controlling degree (%) Rice (rice; [3]): 0%
8 | CCN(C(=O)COc1ccccc1)C(c1cnccc1C(F)(F)F)C(C)C (centres unmarked) [I-259] | – | – | – | – | – | – | – | – | – | 70 | 90 | 98 | 40 | 0 | 75 | 50 | 30 | 10 | 98 | 40 | Growth controlling degree (%) Barnyardgrass (barnyardgrass [2]; [3]): 70%; Growth controlling degree (%) Rice (rice; [3]): 10%
